These results are taken from PubChem BioAssay (NCI).

Holding throughout (test): growth of human tumour cells (NCI), 48 h
The subject of assay [1] is NCI-H226 lung.
Assay [2] deals with CCRF-CEM leukemia.
Assay [3] has as its system MDA-MB-435.
The subject of assay [4] is K-562 leukemia.
Assay [5] concerns SR leukemia.
Assay [6] concerns CAKI-1 renal.
Assay [7] deals with COLO 205 colon.
Assay [8] deals with HL-60(TB) leukemia.
Assay [9] concerns RXF 393 renal.
Assay [10] deals with UACC-62 melanoma.

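Interpolation was linear, between the two tested concentrations surrounding the appropriate level; five concentrations were tested over 48 hours in 96-well plates. The concentration for 50% growth inhibition is given as GI50. The concentration for full growth arrest is given as TGI.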 Bounds are passed on as bounds.

With `Cc1ccc(C)c(C2=C(c3cn(C)c4ccccc34)C(=O)NC2=O)c1`, the GI50 was > 25 µM in [1]; 5.42 µM in [2]; 24 µM in assay [3]; 15.1 µM in [4]; 5.05 µM in assay [5]; > 23.4 µM in assay [6]. The GI50 is 7.36 µM in [7], 6.7 µM in assay [8], 5.93 µM in assay [9] and > 25 µM in assay [10]. Moreover, the TGI is > 25 µM in assay [1]; > 25 µM in assay [2]; > 25 µM in [3]; > 25 µM in [4]; > 21 µM in [5]; > 25 µM in assay [6]. For the same compound, the TGI is > 25 µM in assay [7], 16.2 µM in [8], > 25 µM in assay [9] and > 25 µM in assay [10].
`CC(C)=CCNc1ncnc2c1ncn2C1OC(CO)C(O)C1O` (centres undefined): the GI50 in assay [1] was 2.6 µM; in assay [2], 0.456 µM; in assay [3], 3.26 µM; in assay [4], 0.703 µM; in assay [5] it was 0.799 µM; in [6], 0.721 µM. Besides, the GI50 in assay [7] was 3.96 µM; in [8], 0.29 µM; in assay [9], 0.488 µM. Besides, the TGI in assay [1] was 7.1 µM; in assay [2], 3.17 µM; in [3], > 1000 µM; in assay [4] it was > 380 µM; in assay [5], > 334 µM; in assay [6], 4.74 µM. For the same compound, the TGI in assay [7] is 550 µM; in assay [8], 0.822 µM; in assay [9], 2.6 µM; in [10] it was > 1000 µM.
On to `C=C(c1nc2ccc(Cl)cc2[nH]c1=O)C(O)c1ccc(C(O)C(=O)c2nc3ccc(Cl)cc3[nH]c2=O)cc1` (centres undefined), for which the TGI in [1], in assay [2], in assay [3], in assay [4], in assay [5] and in assay [6] was > 100 µM throughout. The TGI was > 100 µM in [7], 41.8 µM in assay [8], > 100 µM in [9] and > 100 µM in assay [10].
As for `COc1cc(N(CCC#N)CCC#N)ccc1/C(N=Nc1ccc([N+](=O)[O-])cc1)=N/NC(=O)c1cc(Br)ccc1O`, the GI50 in assay [1] is 5.47 µg/mL; in [2] it was 48.5 µg/mL; in [3] it was 52.2 µg/mL; in assay [4] it was 63.1 µg/mL; in assay [5] it was 44.8 µg/mL; in assay [6], 65.9 µg/mL. The GI50 in assay [7] is 24 µg/mL; in assay [8] it was 49.2 µg/mL; in assay [9], 30.3 µg/mL; in assay [10], 40.9 µg/mL. Further, the TGI was 64.3 µg/mL in assay [1]; > 150 µg/mL in assay [2]; > 150 µg/mL in assay [3]; > 150 µg/mL in [4]; > 150 µg/mL in assay [5]; > 150 µg/mL in assay [6]. Further, the TGI in assay [7] is 45.9 µg/mL; in [8], > 150 µg/mL; in assay [9], 83.8 µg/mL; in [10], > 150 µg/mL.
Regarding `O=C(CNc1ccc(Cl)cc1)Nc1ccc(-c2nc3ccccc3s2)cc1`, the GI50 in assay [1] was 2.94 µM; in assay [2], 0.859 µM; in assay [3], 3.91 µM; in [4] it was 1.95 µM; in assay [5], 1.43 µM; in assay [6] it was 6.8 µM. The GI50 in assay [7] was 3.49 µM; in assay [8], 2.23 µM; in [9] it was 4.95 µM; in assay [10] it was 2.63 µM. Also, the TGI is 11 µM in assay [1]; > 100 µM in [2]; 16.6 µM in assay [3]; > 100 µM in [4]; > 24 µM in assay [5]; 20 µM in assay [6]. Besides, the TGI in assay [7] was found to be 10.2 µM; in [8] it was 6.05 µM; in assay [9] it was 10.3 µM; in assay [10], 8.3 µM.
In the case of `O=C1NC(=O)C(c2cnc3ccccn23)=C1c1cn2c3c(cc(F)cc13)CN(C(=O)N1CCCCC1)CC2`, the GI50 is 3.7 µM in assay [1]; 2.69 µM in [2]; 14.6 µM in [3]; 3.39 µM in assay [4]; 1.84 µM in assay [5]; 1.24 µM in assay [6]. In addition, the GI50 is 11.4 µM in assay [7], 8.74 µM in [8], 0.0224 µM in [9] and 7.72 µM in assay [10]. For the same compound, the TGI in assay [1] is 54.8 µM; in assay [2], 49.3 µM; in [3], 40.3 µM; in [4], > 100 µM; in [5], 29.1 µM; in assay [6], > 37.7 µM. Moreover, the TGI turned out to be 36.9 µM in assay [7], 44.3 µM in assay [8], 14.7 µM in assay [9] and 22.9 µM in assay [10].
